# In US20060135612A1, “Method of ameliorating or abrogating the effects of a neurodegenerative disorder, such as amyotrophic lateral sclerosis (ALS), by using a HDAC inhibiting agent” (U.S. Department of Veterans Affairs, priority 2004, published 2006):
# Read-outs that look alike come from different tables or passages of the source.
# Assays:
# bcl-2 promoter = bcl-2 promoter activity assay in transfected N2a cells; assay type: cell-based
# Protocol: Promoter Activity Assay: […] Vincent Bours (University of Liege, Belgium) (Reference 41). The bcl-2 Luc-reporter plasmids containing the fragment from -3934 to -8 from the bcl-2 promoter was also generous gift from Dr. L. Boxer (Stanford University, California). […] All promoter assays were performed in duplicates. Enzyme activities were normalized to the protein concentration of the extracts.
# G93A mice [1] = assay: Motor performance on rotarod; assay type: in vivo; conditions: most efficacious doses, after 13 wks through endstage disease
# G93A mice [2] = conditions: at 120 days, PBS-treated 4,680.6±847.4, WT 11,580.9±221.2
# G93A mice [3] = conditions: 120 days; for reactive astrogliosis (GFAP immunostaining): G93A mice spinal cord sections; for gross spinal cord atrophy: G93A mice
# Body weight = assay type: in vivo; conditions: G93A mice, beginning after 100 days
# G93A transgenic ALS mice = conditions: for Survival (Days ± SD) / Percentile change (survival extension): G93A mice; for Percentile change (survival extension): vs 0 mg/kg/d
# Protocol: We have standardized criteria to ensure homogeneity of the cohorts within the testing groups. Mice were randomized from 24 litters all within 4 days from the same ‘f’ generation. Body weights were taken at 20 days and mice were equally distributed according to weight within each experimental cohort. Mice under 8 g at 20 days were excluded from the experiments.
# Intraperitoneal Dosing: Based upon previous studies (Reference 29), a dose response study was performed, treating groups (n=20) of wild type and G93A mice with 200, 600, 1,200, 2,000 and 5,000 mg/kg by daily intraperitoneal injection (100 μl) of sodium butyrate (Acros Organics/Fisher Scientific, Fairlawn, N.J.) dissolved in PBS and made fresh daily. Additional groups of mice were treated in the same manner with 100, 200, 400, 600, and 800 mg/kg of phenylbutyrate (Triple Crown America, Inc. Perkasie, Pa.). Control groups of G93A mice were treated with PBS injection (vehicle). Approximately 260 mice were used for behavioral and survival analyses.
# Motor performance and ability to feed was closely monitored and used as the basis for determining when to euthanize the mice. The criterion for euthanization was the point in time the ALS mice were unable to right themselves after being placed on their back for 30 seconds. Some deaths occurred overnight and were recorded the following morning.
# ALS mice = conditions: References 10 and 11; cited from earlier work
# humans with ALS = conditions: cited from earlier work
# plκB [4] = conditions: N2a cells, 1 mM for three hours
# Protocol: (§1) Immunofluorescence Staining and Microscopy: Indirect labeling methods were used to determine plκB and NF-κB p50 in N2aCells. […] The cells were washed with warm PBS and fixed at room temperature for 15 min with 4% paraformaldehyde (PFA). After washing with PBS, fixed cells were incubated with blocking solution containing 0.3% Triton X-100, 5% bovine serum albumin, and 3% goat serum for 1 hr, followed by incubation with primary antibodies overnight at 4° C. After three washes with PBS, the cells were incubated for 1 hr with FITC-conjugated (1:200 dilution) and Cy3-conjugated secondary antibody (1:200 dilution; Vector Laboratories, Burlingame, Calif.). The slides were washed three times with PBS and mounted with fluorochrome mounting solution. Images were analyzed using a fluorescence microscope. Control experiments were performed in the absence of primary antibody.
# NF-κB p50 [5] = conditions: N2a cells, 1 mM for three hours
# Protocol: as §1
# G93A mice [6] = conditions: at 17 weeks, vs untreated G93A mice
# Protocol: Clinical Assessment: Both motor performance and body weight were measured throughout the study. Training sessions were given on days 21 and 22 to acclimate the mice to the rotarod apparatus (Columbus Instruments, Columbus, Ohio). Motor performance (constant rotation at 16 rpm) was assessed weekly from 23-100 days of age and twice weekly from 101 days of age. Three 60 sec trials were given during each session and averaged. Body weights were recorded twice weekly at the same time of day. Gait analysis was performed measuring stride length (Reference 49).
# WT and WT-SOD1 N2a cells = conditions: MTT
# Protocol: (§2) N2a Cell Culture: N2a monolayer cell cultures were grown in 50% DMEM and 50% OPTI-MEM with 5% fetal bovine serum (FBS), 1% antibiotic antimycotic, and 400 microgram/ml of the neomycin analog G418. Differentiation was induced within 3 days in serum-free medium. The SOD1 mutation (G41D) was introduced into a plasmid clone of human genomic SOD1 (pHGSOD-SVneo). Stably transfected lines of N2a cells were selected with the drug G418, after transfection with SOD1 pHGSOD-SVneo plasmids. Differentiated cells were incubated without FBS for 6 days before treatments. […] Cell viability was measured by MTT assay.
# [7] = test system: N2a mutant SOD (G41D) cells; conditions: 1 mM, 12 hr pretreatment, X/XO 6 hr, MTT, vs untreated cells
# Protocol: as §2
# bcl-2 mRNA = conditions: spinal cord tissue cultures, ex vivo administration
# Protocol: (§3) Freshly isolated spinal cords from wild type and G93A mice were minced and incubated with neurobasal medium for 12 hr. […] After incubation, the tissues were harvested and equally divided for Western blot analysis and RT-PCR.
# [8] = test system: histone 3 and histone 4 acetylation; conditions: treated WT and G93A mice
# activated caspase 3 = conditions: G93A mice, 120 days, vs untreated
# Protocol: (§4) Western Blotting: Tissue lysates and subcellular fractions were prepared using an ice-cold cell extraction buffer containing 50 mM Tris-HCl, pH 7.4, 150 mM NaCl, 2 mM EDTA, 1% Triton X-100, 1 mM phenylmethylsulfonyl fluoride (PMSF), 10 mg/ml leupeptin, 1 μM pepstatin, 1 mM N-ethylmleimide (NEM), 2 mM Na3VO4, 20 mM sodium pyrophosphate, and 50 mM NaF). Lysates were centrifuged at 15,000 rpm at 4° C. for 30 min. Then the protein concentration was quantified and samples were boiled for 10 min with Laemmli buffer (15 is 100 mM Tris-HCL, pH 6.8, 4% SDS, 200 mM dithiothreitol, 20% glycerol, 2% SDS, 0.2% bromophenol blue, 10 μg/ml aprotinin, 10 μg/ml leupeptin) at 100° C. In general, 30 μg of proteins were electrophoresed on 10% SDS-polyacrylamide gel and transferred to nitrocellulose membrane. Membranes were blocked in 5% skim milk in TBST (Tris, pH 7.4; 150 mM NaCl; 0.05% Tween 20) for 30 min at room temperature. Blots were probed with primary antibodies overnight at 4 ° C. […] HRP-conjugated secondary IgG anti-Rabbit IgG and anti-mouse IgG (Bio-Rad Laboratories, Inc., Hercules, Calif.) were used at 1:5000 and 1:3000, respectively. HL-60 Cell lysates were used as positive controls (Upstate Biotechnology, Lake Placid, N.Y.).
# cytochrome c = conditions: G93A spinal cord, 120 days, vs PBS-treated
# Protocol: as §4
# plκB [9] = conditions: G93A mice
# Protocol: as §4
# bcl-2 [10] = conditions: G93A mice, vs vehicle-treated
# Protocol: as §4
# activated caspase 9 = conditions: G93A mice, 120 days, vs untreated
# Protocol: as §4
# NF-κB p50 [11] = conditions: G93A mice, vs WT and vehicle-treated
# Protocol: as §4
# plκB [12] = conditions: spinal cord tissue cultures, 1 mM, time-dependent
# Protocol: as §3
# as §4, with “HL-60 Cell lysates were used as positive controls (Upstate Biotechnology, Lake Placid, N.Y.).” left out
# bcl-2 [13] = conditions: spinal cord tissue cultures, 1 mM, time-dependent
# Protocol: as §3
# as §4, with “HL-60 Cell lysates were used as positive controls (Upstate Biotechnology, Lake Placid, N.Y.).” left out
# acetylated NF-κB p50 = conditions: 1 mM
# Protocol: as §3
# Detection of Acetylated NF-κB p50: For detection of the levels of acetylated NF-κB p50, 200 μg of nuclear extracts were diluted to a total volume of 500 microliter in lysis buffer (100 mM Tris buffer, pH7.4, containing 1% Triton X-100, 150 mM NaCl, 1 mM sodium orthovanadate, 5 mM sodium fluoride, 3 mM PMSF, 3 mM DTT, 0.5 mg/m leupeptin, and 10 mg/ml aprotinin) and incubated with 7 μl of goat anti-p50 antibody (Santa Cruz, Santa Cruz, Calif.) by shaking overnight at 4° C. Thirty-two μl of protein A-sepharose (50% v/v slurry) was added to lysates and left for 1 hr at 4° C. Beads were collected by centrifugation and washed twice with lysis buffer, once in PBS and finally resuspended with 40 μl of 2×SDS loading buffer. Samples were boiled and a 20 μl aliquot was separated in a 10% SDS-PAGE. After transferring the proteins to a nitrocellulose membrane acetylated p50 proteins were detected in Western blot analysis using an acetyl lysine-specific antibody (AbCam, Cambridge, Mass. at 1:1000).
compound,measurement,setting,value
COc1cc(/C=C/C(=O)CC(=O)/C=C/c2ccc(O)c(OC)c2)ccc1O [Curcumin],effect on PBA-induced bcl-2 promoter activity,"bcl-2 promoter; N2a cells, with PBA",dose-dependently blocked
"CCCC(=O)[O-].[Na+] [NAB, sodium butyrate]",time to death (mice became moribund and died),mice; 2 g/kg/d i.p.,1 to 9 days
same,time to sudden death,mice; 4 g/kg/d i.p.,0.5 to 1.0 h
same,motor performance (rotarod),G93A mice [1],significantly improved
same,"estimated number of ventral horn neurons, lumbar cord",G93A mice [2]; 1.2 g/kg/d i.p. from 21 days,"9,604.4±346.2"
same,reactive astrogliosis (GFAP immunostaining),G93A mice [3],reduced
same,gross spinal cord atrophy,G93A mice [3]; 1.2 g/kg/d,ameliorated
same,body weight loss,Body weight,significantly reduced
same,Survival (Days ± SD),G93A transgenic ALS mice; 200 mg/kg/d i.p.,129.2 ± 4.5 days
same,Survival (Days ± SD),G93A transgenic ALS mice; 600 mg/kg/d i.p.,141.8 ± 5.9 days
same,Percentile change (survival extension),G93A transgenic ALS mice; 600 mg/kg/d i.p.,12.5%
same,Survival (Days ± SD),G93A transgenic ALS mice; 1200 mg/kg/d i.p.,151.3 ± 6.8 days
same,Percentile change (survival extension),G93A transgenic ALS mice; 1200 mg/kg/d i.p.,20%
[O-][n+]1cccc(/C(Cl)=N/OC[C@H](O)CN2CCCCC2)c1 [arimoclomal],survival extension,ALS mice,22%
Nc1nc2ccc(OC(F)(F)F)cc2s1 [riluzole],extension of life,humans with ALS,10-15%
sodium phenylbutyrate [PBA],morbidity and mortality,mice; 600 mg/kg/d i.p.,morbidity and mortality
same,morbidity and mortality,mice; 800 mg/kg/d i.p.,morbidity and mortality
same,motor performance (rotarod),G93A mice [1],significantly improved
same,cytosolic plκB immunofluorescence,plκB [4],increased
same,nuclear translocation of NF-κB p50 immunofluorescence,NF-κB p50 [5],increased
same,stride length,G93A mice [6],markedly improved
same,protection against X/XO-induced cell death,WT and WT-SOD1 N2a cells,protects
same,improvement of cell viability,[7],34.7%
same,"estimated number of ventral horn neurons, lumbar cord",G93A mice [2]; 400 mg/kg/d i.p. from 21 days,"10,378.4±304.4"
same,mRNA upregulation of bcl-2,bcl-2 mRNA,induced at 3 hours and sustained until 12 hours
same,reactive astrogliosis (GFAP immunostaining),G93A mice [3],reduced
same,gross spinal cord atrophy,G93A mice [3]; 400 mg/kg/d,ameliorated
same,body weight loss,Body weight,significantly reduced
same,histone 3 and histone 4 acetylation (Western blot),[8],markedly increased
same,activated caspase 3 (Western blot),activated caspase 3,significantly reduces
same,release of cytochrome c into the cytosol of neurons,cytochrome c,dramatic reduction
same,phosphorylation of lκB in the ventral horn,plκB [9],increased
same,Bcl-2 expression in spinal cord sections,bcl-2 [10],restored to WT levels
same,activated caspase 9 (Western blot),activated caspase 9,significantly reduces
same,expression of NF-κBp50,NF-κB p50 [11],Marked increased expression
same,Survival (Days ± SD),G93A transgenic ALS mice; 200 mg/kg/d i.p.,136.5 ± 5.5 days
same,Percentile change (survival extension),G93A transgenic ALS mice; 200 mg/kg/d i.p.,8.6%
same,Survival (Days ± SD),G93A transgenic ALS mice; 400 mg/kg/d i.p.,153.2 ± 6.4 days
same,Percentile change (survival extension),G93A transgenic ALS mice; 400 mg/kg/d i.p.,21.9%
same,survival benefit,"G93A transgenic ALS mice; transgenic SOD1 mice, this study, dose not stated",22%
same,plκB protein,plκB [12],increased
same,bcl-2 protein,bcl-2 [13],increased
same,time of induced NF-κBp50 acetylation,acetylated NF-κB p50; spinal cord tissue cultures from G93A mice,3 to 6 h
same,time of induced NF-κBp50 acetylation,acetylated NF-κB p50; spinal cord tissue cultures from WT mice,6 to 24 h
same,increase of bcl-2 promotor activity,bcl-2 promoter; N2a cells transfected with bcl-2 reporter plasmids,90%
same,induction of bcl-2 promotor activity,"bcl-2 promoter; N2a cells transfected with bcl-2 reporter plasmids, after 24 h of incubation",approximately 2 fold
same,transactivation of wild type κB site bcl-2 promotor,"bcl-2 promoter; N2a cells, transfection assay",transactivates
